Each structure is given as a SMILES string.

In series [1] the test system is CYP3A. Nature of the series: CYP3A catalytic activity (erythromycin-N-demethylation), mouse hepatic microsomes. It counts as in vitro ADME. Conditions: for activity at 30 min, 12.5 µM / activity at 30 min, 25 µM: liver microsomes, pH 7.4, probe erythromycin, read-out: CYP3A catalytic activity, % of Control. The method, then:
(§1) Microsomal preparation was as previously outlined. Individual livers were placed in beakers containing 1.15% KCl. All the procedures were carried out at 0–4 °C. The liver samples were minced and homogenised in buffer A (0.1 M Tris, 0.1 M potassium chloride, 1 mM EDTA, and 20 μM butylated hydroxytoluene, at pH = 7.4) using the Teflon-glass homogeniser (5–6 vertical passes). The samples were centrifuged for 20 min at 10,000× g. The supernatant was then transferred into another set of centrifuge tubes and spun for 60 min at 100,000× g. The pellet was resuspended in Buffer B (0.1 M potassium pyrophosphate, 1 mM EDTA, and 20 μM butylated hydroxytoluene, at pH = 7.4), homogenised and recentrifuged for 60 min at 100,000× g. Finally, the pellet was homogenised in 1–2 mL of Buffer C (10 mM Tris-HCl, 1 mM EDTA, and 4% glycerol (v/v)) and stored at […] until used. The protein concentration of the microsomes was determined using the Bicinchoninic acid (BCA) method.
(§2) CYP3A catalytic activity was determined using the erythromycin-N-demethylation activity assay as described previously. The reaction mixture (final volume of 1 mL and final protein concentration of 1 mg) contained 500 µL of microsomes in 0.1 M phosphate buffer (pH = 7.4), 400 µL of erythromycin buffer (0.45 mM), and 50 µL of the test compound was pre-warmed at 37 °C for 2 min. The reaction was initiated with 50 µL of 2.5 mM […] and incubated at 37 °C for 30 min (optimised incubation time). The reaction was stopped with the addition of 330 µL of 15% zinc sulphate. Tubes were vortexed and left for 5 min (at room temperature) and then 330 µL of saturated barium hydroxide was added. Tubes were further vortexed and left for 5 min (at room temperature). Tubes were then centrifuged at 1800 g for 10 min. To 830 µL of the supernatant, 330 µL of Nash reagent (30% (w/v) ammonium acetate, 0.4% (v/v) acetyl acetone) was added and further incubated at 60 °C for 30 min. The blank tube contained 330 µL of Nash reagent and 830 µL of Milli-Q-water. The tubes were centrifuged again at 1800× g for 10 min and the absorbance was read at 415 nm. Results presented are the mean ± SEM of 3 independent experiments conducted in duplicate.

For series [2], the system named is CYP3A. In words: CYP3A catalytic activity (erythromycin-N-demethylation), rat hepatic microsomes. It counts as in vitro ADME. Conditions: for activity at 30 min, 12.5 µM / activity at 30 min, 25 µM: liver microsomes, pH 7.4, probe erythromycin, read-out: CYP3A catalytic activity, % of Control. The method, then:
as §1, §2

The test system of series [3] is UGT. Nature of the series: p-nitrophenol glucuronidation, possum hepatic microsomes. It counts as in vitro ADME, possum (Trichosurus vulpecula). The procedure:
as §1
(§3) The rate of p-nitrophenol glucuronidation was determined as previously reported. In short, the incubation mixture (500 µL in total) contained; 100 µL of 1 mg/mL microsomes, 50 µL of 1 M Tris-HCl (pH = 7.4), 20 µL of 0.25% (v/v) Triton-X 100, 50 µL of 50 mM MgCl2, 130 µL of double distilled water, 50 µL of 5 mM p-nitrophenol, 50 µL of the test compound, and 50 µL of uridine 5′-diphosphoglucuronic acid trisodium salt (UDPGA). The blank tubes had all components except UDPGA and microsomes; instead, 150 µL of 0.1 M phosphate buffer was added to equal the volume as the reaction mixture. The reaction mixture and the blank were incubated at 37 °C for 2 min. Then, 50 µL of 30 mM UDPGA was added to initiate the reaction which proceeded at 37 °C for 30 min (optimised incubation time). The reaction was stopped using 1 mL of 5% trichloroacetic acid (TCA). The tubes were centrifuged at 1800 g for 10 min and then 1 mL of supernatant was added to 250 µL of 2 M sodium hydroxide (NaOH). The absorbance was read at 405 nm. The sample reading was subtracted from the blank absorbance and divided by the extinction coefficient of p-nitrophenol ([…]) and the light path of the spectrophotometer (1 cm). The glucuronidation activities are expressed in µmol/mg/min and are the mean ± SEM of 3 independent experiments conducted in duplicate.

The subject of series [4] is CYP3A. Nature of the series: CYP3A catalytic activity (erythromycin-N-demethylation), possum hepatic microsomes. The series is classed as in vitro ADME, possum (Trichosurus vulpecula). The following applies: for activity at 30 min, 12.5 µM / activity at 30 min, 25 µM: possum (Trichosurus vulpecula), liver microsomes, pH 7.4, probe erythromycin, read-out: CYP3A catalytic activity, % of Control. The method, then:
as §1, §2

Series [5] has as its system UGT. In words: p-nitrophenol glucuronidation, mouse hepatic microsomes. The series is classed as in vitro ADME. The method, then: as §1, §3
In series [6] the test system is UGT. In words: p-nitrophenol glucuronidation, rat hepatic microsomes. The series is classed as in vitro ADME. The method, then: as §1, §3

As for `O=C(O)C1CC2C=CC1O2` (stereo not drawn) [7-oxabicyclo[2.2.1]-hept-5-ene-2-carboxylic acid], the CYP3A catalytic activity with CYP3A [1] (12.5 µM) was determined as 0.67 ± 0.01 nmol/mg/min; with CYP3A [1] (25 µM), 0.66 ± 0.03 nmol/mg/min; in the series with CYP3A [2] (12.5 µM), 0.48 ± 0.06 nmol/mg/min; with CYP3A [2] (25 µM), 0.51 ± 0.04 nmol/mg/min; with CYP3A [4] (12.5 µM) it was 0.41 ± 0.02 nmol/mg/min; in the series with CYP3A [4] (25 µM), 0.40 ± 0.02 nmol/mg/min. The values for the activity at 30 min, 12.5 µM in the series on CYP3A [1] (12.5 µM), in the series on CYP3A [2] (12.5 µM) and in the series with CYP3A [4] (12.5 µM) were 103 ± 2.77%, 107 ± 5.87% and 106 ± 7.47%, respectively. For the same molecule, the activity at 30 min, 25 µM worked out at 103 ± 3.52% with CYP3A [1] (25 µM), 114 ± 3.17% in the series with CYP3A [2] (25 µM) and 103 ± 1.09% in the series on CYP3A [4] (25 µM). In addition, the p-nitrophenol glucuronidation activity in the series on UGT [3] (12.5 µM) is given as 4.02 ± 0.09 µmol/mg/min; with UGT [3] (25 µM), 3.99 ± 0.09 µmol/mg/min; with UGT [5] (12.5 µM), 3.46 ± 0.04 µmol/mg/min; in the series on UGT [5] (25 µM), 3.26 ± 0.09 µmol/mg/min; in the series on UGT [6] (12.5 µM) it was 2.87 ± 0.07 µmol/mg/min; in the series on UGT [6] (25 µM), 2.75 ± 0.06 µmol/mg/min. Moreover, the “p-nitrophenol glucuronidation, % of Control” value with UGT [3] (12.5 µM) came to 99.13 ± 1.29%; with UGT [3] (25 µM), 98.49 ± 0.83%; with UGT [5] (12.5 µM) it was 101.00 ± 0.64%; in the series on UGT [5] (25 µM), 95.53 ± 4.50%; in the series on UGT [6] (12.5 µM) it was 102.50 ± 2.98%; in the series with UGT [6] (25 µM), 98.20 ± 1.42%.
As to `CC12CCC(CC1=O)C2(C)C` (stereo not drawn) [Camphor, camphor], the CYP3A catalytic activity in the series with CYP3A [1] (12.5 µM) is recorded as 0.68 ± 0.02 nmol/mg/min; in the series with CYP3A [1] (25 µM), 0.68 ± 0.03 nmol/mg/min; with CYP3A [2] (12.5 µM), 0.63 ± 0.03 nmol/mg/min; in the series on CYP3A [2] (25 µM) it was 0.59 ± 0.04 nmol/mg/min; in the series with CYP3A [4] (12.5 µM), 0.40 ± 0.03 nmol/mg/min; in the series with CYP3A [4] (25 µM) it was 0.41 ± 0.03 nmol/mg/min. Moreover, the activity at 30 min, 12.5 µM in the series with CYP3A [1] (12.5 µM) is 97.1 ± 2.15%; in the series on CYP3A [2] (12.5 µM) it was 101 ± 3.99%; in the series with CYP3A [4] (12.5 µM) it was 102 ± 2.05%. Besides, the activity at 30 min, 25 µM in the series on CYP3A [1] (25 µM) was found to be 96.3 ± 3.21%; in the series on CYP3A [2] (25 µM) it was 95 ± 1.81%; in the series with CYP3A [4] (25 µM), 104 ± 2.57%. In addition, the p-nitrophenol glucuronidation activity was found to be 4.01 ± 0.33 µmol/mg/min in the series with UGT [3] (12.5 µM); 3.97 ± 0.33 µmol/mg/min in the series with UGT [3] (25 µM); 2.42 ± 0.08 µmol/mg/min with UGT [5] (12.5 µM); 2.31 ± 0.09 µmol/mg/min with UGT [5] (25 µM); 2.62 ± 0.09 µmol/mg/min with UGT [6] (12.5 µM); 2.72 ± 0.24 µmol/mg/min in the series with UGT [6] (25 µM). The “p-nitrophenol glucuronidation, % of Control” value is 102.42 ± 1.78% in the series on UGT [3] (12.5 µM); 101.32 ± 1.34% in the series with UGT [3] (25 µM); 104.80 ± 1.79% in the series with UGT [5] (12.5 µM); 100.10 ± 2.45% in the series on UGT [5] (25 µM); 102.59 ± 1.43% with UGT [6] (12.5 µM); 106.26 ± 6.99% in the series on UGT [6] (25 µM).

The record behind these values is PMC8698377, “In Vitro Hepatic Assessment of Cineole and Its Derivatives in Common Brushtail Possums (Trichosurus vulpecula) and Rodents” (Biology, 2021).
